For data set [1] the following is noted: DTA.
The nature of data set [2]: Molar enthalpy of transition or fusion. As to conditions: DSC.

The values below come from the NIST ThermoML archive (doi:10.1016/j.tca.2016.01.006).

± gives the expanded uncertainty stated by the source.

With `CC1=C(CC(=O)O)c2cc(F)ccc2/C1=C\c1ccc([S+](C)[O-])cc1` (centres undefined), the Normal melting temperature is 190.00 ± 2 °C in data set [1] (Crystal 1) and 185.00 ± 2 °C in data set [1] (Metastable crystal). The “Molar enthalpy of transition or fusion” value came out at 5.45 ± 0.17 kcal/mol in data set [2] (Crystal 1) and 7.24 ± 0.17 kcal/mol in data set [2] (Metastable crystal).
